One block for each molecule: values may come before it.
Assays:
[1] = tested on: lung tumors of LSL-K-rasG12D;p53Fl/+ mice; test: Lung tumor burden by micro-CT in LSL-K-rasG12D;p53Fl/+ mice; type: in vivo, mouse; conditions: FIG. 3A-B
Method: (§1) LSL-K-ras^G12D;p53^F1/+ were infected with Adeno-Cre virus and allowed to age for 16 weeks post-tumor induction. Baseline CT scans were performed at 16 weeks post-tumor induction (day 0 of study) and mice were grouped such that average starting tumor volume per group were equal. Mice were dosed once a week for three weeks with cisplatin (7 mg/kg) or phosphate-buffered saline, and bi-weekly with HER4ECD-Fc (25 mg/kg) or anti-ragweed IgG2A (25 mg/kg) for the duration of the study. Serial CT scans were performed at days 14, 45, and 66.
Two micro-CT systems (vivaCT 40 and vivaCT 75, Scanco Medical, Switzerland) were utilized for longitudinal lung imaging. Animals were randomized between micro-CT systems and rescanned on the same system used for baseline imaging. […] The imaging data were evaluated in the coronal plane using the image analysis software package Analyze (AnalyzeDirect, Inc., Lenexa, Kans., USA). Once the largest cross-sectional plane of each tumor was identified, estimates of maximal tumor diameter (d1) and the largest perpendicular diameter (d2) were determined. The total tumor burden was calculated as the sum of the cross-product of the directional estimates (d1×d2) of all the tumors. […]

[2] = tested on: Calu3-shHER3 xenograft tumors; test: Calu3-shHER3 xenograft; type: in vivo, human; conditions: Calu3-shHER3, dox 2 gm/L in drinking water
Method: To confirm this role in vivo, studies using Calu3-shHER3 and Calu3-shHER4 xenograft models treated with either sucrose or dox were performed. Mice with established Calu3-shHER3 or Calu3-shHer4 xenograft tumors were administered vehicle (sucrose) or dox (2 gm/L) in their drinking water ad libitum (n=14/group).

[3] = tested on: Calu3-shNRG1 xenograft tumors; test: Calu3-shNRG1 xenograft, NRG1 knockdown +/- chemotherapy; type: in vivo, human; conditions: dox induces NRG1 knockdown, chemotherapy paclitaxel + cisplatin
Method: Tumor cells (10-20 million) were transplanted into right flank of athymic nude mice. When tumor size reached ˜200 mm^3, the mice were divided into different treatment groups. Mice were then treated with either vehicle or chemotherapy (paclitaxel, i.v.+cisplatin, i.p.) for the initial studies. The chemotherapy dosing regimen was paclitaxel 20 mg/kg i.v. every other day for 5 doses and cisplatin 5 mg/kg i.p. on days 1 and 7 for the Calu3 model and days 1 and 14 for the H441 model. Regressed tumors and time matched vehicle controls were collected at least 1 week after the last dose of chemo. Tumors were dissociated using dispase/collagenase and samples were FACS sorted to collect the GFP positive tumor cells. For the NRG1 knockdown studies, the treatment groups were: sucrose, doxycycline (dox), chemotherapy+sucrose, and chemotherapy+doxycycline. […]
To determine the efficacy of NRG1-targeting in the Calu3 model, Calu3-shNRG1 tumor bearing mice were assigned to four groups; 1) vehicle+sucrose, 2) vehicle+dox, 3) chemotherapy+sucrose, and 4) chemotherapy+dox. […] Tumor volume was measured twice a week for the duration of the study.
The effect of NRG1 on tumor relapse was assessed by comparing the growth of tumors in the chemotherapy+sucrose with those in the chemotherapy+dox group. […] Therefore, the measured volumes were considerably larger than the actual tumor volume in the dox-treated groups. […]

NRG1/HER3 signaling = test: HER4-ECD on serum starved LKPH1 and LKPH2 cells, p-HER3 Western blot; type: cell-based, mouse
Method: To induce shRNA expression, stable cell lines harboring doxcycline-inducible shNRG1 or shLuciferase were grown in 1 ug/ml doxcycline for a total of 6 days. The first day of induction cells were grown in 10% FBS, followed by a titration of FBS over the course of 4 more days. The cells were then completely serum starved during the last 6 hours of growth. Cells were then processed for RNA extraction or western blotting. For HER4ECD studies in mouse lung tumor cell lines, LKPH cells were grown in serum starved conditions for 24 hours prior to addition of HER4ECD at a concentration of 2 mg/ml. LKPH cells were then incubated for another 48 hours prior to processing for Western blotting. Addition of exogenous NRG1 on H441 cells were performed as follows: H441 cells were serum starved for 18 hours prior to addition of 1 uM recombinant human NRG1 beta-1 extracellular domain (R&D systems) or 1 uM anti-ragweed IgG2A as the control. Ten minutes after addition of NRG1 or ragweed, cells were processed for Western blotting.
To test the role of NRG1 signaling in promoting relapse after chemotherapy in the LSL-K-ras^G12D;p53^F1/+ mouse model, a ligand-trap approach to sequester NRG1 and prevent its binding to receptors in vivo was employed. A fusion of the human HER4 extracellular domain (HER4-ECD) fused to murine IgG2A Fc was generated. […]

[4] = tested on: lung tumors of LSL-K-rasG12D;p53Fl/Fl mice; test: Lung tumor burden by micro-CT in LSL-K-rasG12D;p53Fl/Fl mice; type: in vivo, mouse; conditions: FIG. 3C
Method: as §1
Two micro-CT systems (vivaCT 40 and vivaCT 75, Scanco Medical, Switzerland) were utilized for longitudinal lung imaging. Animals were randomized between micro-CT systems and rescanned on the same system used for baseline imaging. […] The imaging data were evaluated in the coronal plane using the image analysis software package Analyze (AnalyzeDirect, Inc., Lenexa, Kans., USA). Once the largest cross-sectional plane of each tumor was identified, estimates of maximal tumor diameter (d1) and the largest perpendicular diameter (d2) were determined. The total tumor burden was calculated as the sum of the cross-product of the directional estimates (d1×d2) of all the tumors.
A second study was carried out in LSL-K-ras^G12D;p53^F1/F1 mice as described above. […] Combination activity was assessed using an unpaired t-test against its monotherapy * p<0.05, ** p<0.01.

HRG1β = test: Competition assay with 538.24.17 for HRG1β; type: binding; conditions: FIG. 12
Method: (§2) A competition assay was performed to determine the binding specificity of the 526.09 and 526.02 antibodies.

HRG1a = molecular target: T1, HRG1a (Homo sapiens, UniProt Q02297); test: Competition assay with 538.24.17 for HRG1a; type: binding; conditions: FIG. 12
T1 sequence (Q02297 177-241): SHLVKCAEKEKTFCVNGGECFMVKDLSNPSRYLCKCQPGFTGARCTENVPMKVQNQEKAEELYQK
Method: as §2

NRG1β = molecular target: T2, NRG1β (Homo sapiens, UniProt Q02297); test: Inhibition of 125I-HRG (NRG1β) binding to HER3-ECD-Fc; conditions: parental anti-NRG1 antibodies, FIG. 6
T2 sequence (Q02297 177-244 isoform Q02297-6 limits assumed): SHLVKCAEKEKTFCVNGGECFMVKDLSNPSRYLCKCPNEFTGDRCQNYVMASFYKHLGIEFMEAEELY
Method: The antibodies were tested for their ability to inhibit NRG1β binding to HER3-Fc. 125I-HRG was generated at Genentech as described previously (Sliwkowski et al JBC 1994). Binding assays were performed in Nunc break-apart strip wells (Thermo-Fisher Scientific, Rochester, N.Y.). Plates were coated at 4° C. overnight with 250 ng/well of HER3-ECD-Fc fusion protein in carbonate buffer (pH 9.6). Plates were rinsed twice with wash buffer (PBS/0.05% Tween 20) and blocked with 100 μL PBS including 1% bovine serum albumin (BSA) for 30 minutes. Increasing concentrations of anti-NRG1 antibodies in RPMI 1640 medium (Invitrogen; Carlsbad, Calif.) with 0.2% BSA were pre-bound to HER3-ECD-Fc. 125I-HRG (specific activity: 266 mCi/mg, 75,000 cpm/well) was added immediately after in a total assay volume of 130 μL. Plates were incubated for 2 hours at room temperature, rinsed twice, and individual wells were counted using a 100 Series Iso Data γ-counter. Samples were assayed in triplicates. Plotting was performed using KaleidaGraph 3.6 software. […]
The affinity matured variants were tested for their ability to block HRGβ binding to HER3-Fc. […] Plates were incubated for 2 hours at room temperature, rinsed twice, and individual wells were counted using a 100 Series Iso Data γ-counter. […]

Molecule: N.N.[Cl][Pt][Cl] [cisplatin]
- tumor growth (average tumor burden and tumor growth rate) [1]: not significantly different

Molecule: C[C@H]1c2cccc(O)c2C(=O)C2=C(O)[C@]3(O)C(=O)C(C(N)=O)=C(O)[C@@H](N(C)C)[C@@H]3[C@@H](O)[C@@H]21 [dox, doxycycline]
- tumor volume doubling time (TDT) [2]: 19 days

Molecule: C[C@H]1c2cccc(O)c2C(O)=C2C(=O)[C@]3(O)C(O)=C(C(N)=O)C(=O)[C@@H](N(C)C)[C@@H]3[C@@H](O)[C@@H]21 [vehicle+dox]
- tumor volume doubling time (TDT) [3]: 44.5 days

Molecule: HER4-ECD: fusion of the human HER4 extracellular domain to murine IgG2A Fc, ligand trap to sequester NRG1
- p-HER3 levels (NRG1/HER3 signaling): diminished
- tumor burden by micro-CT on day 28 [4]: no effect

- competition with 538.24.17 for HRG1a (HRG1a): competes
- dose-dependent inhibition of NRGβ binding to HER3-Fc (NRG1β): most potent blockers
B1: 526.90: parental anti-NRG1 antibody; VH SEQ ID NO: 52, VL SEQ ID NO: 53 (antibody, V domains shown)
VH: EVQLVESGGGLVQPGGSLRLSCAASGFTFSGNAMSWVRQAPGKGLEWVSWIYPSGGNTYYADSVKGRFTISADTSKNTAYLQMNSLRAEDTAVYYCARSYILSYPSITWAFDYWGQGTLVTVSS
VL: DIQMTQSPSSLSASVGDRVTITCRASQSISSYLAWYQQKPGKAPKLLIYGASSRASGVPSRFSGSGSGTDFTLTISSLQPEDFATYYCQQSYSTPITFGQGTKVEIKR
modifications: Heavy chain variable region; Light chain variable region
- competition with 538.24.17 for HRG1β (HRG1β): competes
